Laboratory results from patent publication US7947703B2, “Phenanthridinium derivatives as DNA binding agents” (University Court of the University of Glasgow, priority 2003, dated 2011).
Marks after values point to notes of the source that are not given here.

Key:
[1] = test system: human ovarian tumour cell line A2780; experiment: growth (tetrazolium dye-based microtitration) cytotoxicity assay, A2780; assay type: cell-based
Protocol: (§1) Compounds were tested in a growth assay with a 24 hours drug exposure and a 3 day recovery period. Cell lines used were human ovarian tumour cell line A2780 and 2 Cisplatin resistant derivatives cell lines A27080/cp70 and MCP1. IC50 is the concentration of drug required to reduce the surviving cell number to 50% of that of the control untreated cells. Results are from one experiment and are the mean±SEM of the triplicate plates.
(§2) DIP cytotoxicity was determined by a tetrazolium dye-based microtitration assay. DNA affinity measurements of DIPs were undertaken using Isothermal Titration Calorimetry (ITC).

[2] = test system: Cisplatin resistant cell line A2780/cp70; experiment: growth (tetrazolium dye-based microtitration) cytotoxicity assay, A2780/cp70; assay type: cell-based, human
Protocol: as §1, §2

[3] = test system: Cisplatin resistant cell line MCP1; experiment: growth (tetrazolium dye-based microtitration) cytotoxicity assay, MCP1; assay type: cell-based, human
Protocol: as §1, §2

Salmon DNA = experiment: DNA affinity by Isothermal Titration Calorimetry (ITC), Salmon DNA; assay type: binding
Protocol: as §2

Calf DNA = experiment: DNA affinity by Isothermal Titration Calorimetry (ITC), Calf DNA; assay type: binding
Protocol: as §2

DNA = experiment: Viscosimetry analysis (DNA intercalation); settings: preliminary result

c1ccc2c(c1)c1[n+](c3ccccc23)CCN1 [AP5-94, 2,3-Dihydro-1H-imidazo[1,2-f]phenanthridin-4-ylium bromide]
cytotoxicity on cisplatin-sensitive cell line A2780 (in words) [1]: high cytotoxicity
IC50 ([1]; Homo sapiens, A2780, cisplatin-sensitive line, 24 hours drug exposure, 3 day recovery, mean±SEM of triplicate plates): 1560 ± 180 nM
less active on A2780/cp70 than on A2780 [2]: 50%
IC50 ([2]; Homo sapiens, A2780/CP70, cisplatin-resistant line, 24 hours drug exposure, 3 day recovery, mean±SEM of triplicate plates): 2300 ± 150 nM
RF1 ([2]; rapport of the IC50 between A2780 and A2780/cp70, the lower RF the better): 1.5
more active on MCP1 than A2780 [3]: 50%
IC50 ([3]; Homo sapiens, cisplatin-resistant line, 24 hours drug exposure, 3 day recovery, mean±SEM of triplicate plates): 820 ± 90 nM
RF2 ([3]; rapport of the IC50 between A2780 and MCP1, the lower RF the better): 0.5
Ka Salmon DNA (Salmon DNA): 2.56 ± 802.6 M^−1 (10^4)
Ka Calf DNA (Calf DNA): 2.06 ± 907 M^−1 (10^4)
viscosity of DNA (in words) (DNA): increase of viscosity similar to the one obtained with the DNA intercalator reference ethidium bromide
